# Test results published in ChEMBL document CHEMBL1201862, “PubChem BioAssay data set” (2004).
# Calls of active or inactive are those of the source.
# Columns and labels:
# [1] = target: T1, Type-1 angiotensin II receptor (Homo sapiens, UniProt P30556); test: antagonism of angiotensin II type 1 receptor – cell-based, uHTS hits, selectivity assay for APJ receptor antagonist project, dose response (AID 463214); assay type: functional;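 note: antagonist potency against angiotensin II stimulated AT1 response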
# T1 sequence (P30556 whole entry): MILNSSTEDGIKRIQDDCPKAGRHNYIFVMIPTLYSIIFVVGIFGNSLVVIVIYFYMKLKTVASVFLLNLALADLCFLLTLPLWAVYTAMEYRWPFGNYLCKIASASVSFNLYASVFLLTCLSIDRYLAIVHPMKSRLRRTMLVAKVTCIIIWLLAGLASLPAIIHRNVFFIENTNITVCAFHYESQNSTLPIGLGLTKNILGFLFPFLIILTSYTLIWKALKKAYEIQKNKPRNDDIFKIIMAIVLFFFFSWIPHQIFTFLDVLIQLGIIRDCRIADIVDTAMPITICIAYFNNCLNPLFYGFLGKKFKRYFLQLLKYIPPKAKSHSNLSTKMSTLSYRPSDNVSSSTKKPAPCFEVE
# Beta-galactosidase = Beta-galactosidase (Escherichia coli, UniProt Q8VNN2); test: PubChem AID 485352; assay type: functional
# Sequence of Beta-galactosidase (Q8VNN2 whole entry): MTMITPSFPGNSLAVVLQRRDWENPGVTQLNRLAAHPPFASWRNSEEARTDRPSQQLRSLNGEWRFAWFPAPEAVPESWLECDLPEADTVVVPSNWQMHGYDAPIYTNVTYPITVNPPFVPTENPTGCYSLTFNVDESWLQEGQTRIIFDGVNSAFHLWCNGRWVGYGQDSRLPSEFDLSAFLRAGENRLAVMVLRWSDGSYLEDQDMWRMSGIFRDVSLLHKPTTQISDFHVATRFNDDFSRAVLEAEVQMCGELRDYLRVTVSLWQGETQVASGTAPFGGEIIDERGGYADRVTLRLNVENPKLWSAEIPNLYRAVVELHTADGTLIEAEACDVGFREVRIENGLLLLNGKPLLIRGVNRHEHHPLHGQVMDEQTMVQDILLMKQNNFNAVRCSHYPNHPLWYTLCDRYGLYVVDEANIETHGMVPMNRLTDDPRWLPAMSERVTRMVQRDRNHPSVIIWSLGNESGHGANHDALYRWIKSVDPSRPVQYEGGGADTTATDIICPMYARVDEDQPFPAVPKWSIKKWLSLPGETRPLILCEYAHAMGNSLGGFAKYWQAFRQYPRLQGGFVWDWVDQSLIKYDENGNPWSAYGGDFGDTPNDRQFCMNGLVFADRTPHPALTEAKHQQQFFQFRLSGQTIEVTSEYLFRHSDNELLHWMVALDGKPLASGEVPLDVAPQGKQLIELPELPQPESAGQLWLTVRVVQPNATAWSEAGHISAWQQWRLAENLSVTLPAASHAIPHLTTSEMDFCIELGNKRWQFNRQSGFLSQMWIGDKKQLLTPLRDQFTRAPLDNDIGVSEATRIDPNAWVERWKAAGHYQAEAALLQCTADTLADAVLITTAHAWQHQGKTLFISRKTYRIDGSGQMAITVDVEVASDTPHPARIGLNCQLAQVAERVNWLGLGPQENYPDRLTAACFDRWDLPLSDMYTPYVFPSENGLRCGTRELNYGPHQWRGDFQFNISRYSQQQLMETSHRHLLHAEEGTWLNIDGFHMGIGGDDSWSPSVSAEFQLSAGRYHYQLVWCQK
# Protein skinhead-1 = target: T2, Protein skinhead-1 (Caenorhabditis elegans, UniProt P34707); assay type: functional
# T2 sequence (P34707 whole entry): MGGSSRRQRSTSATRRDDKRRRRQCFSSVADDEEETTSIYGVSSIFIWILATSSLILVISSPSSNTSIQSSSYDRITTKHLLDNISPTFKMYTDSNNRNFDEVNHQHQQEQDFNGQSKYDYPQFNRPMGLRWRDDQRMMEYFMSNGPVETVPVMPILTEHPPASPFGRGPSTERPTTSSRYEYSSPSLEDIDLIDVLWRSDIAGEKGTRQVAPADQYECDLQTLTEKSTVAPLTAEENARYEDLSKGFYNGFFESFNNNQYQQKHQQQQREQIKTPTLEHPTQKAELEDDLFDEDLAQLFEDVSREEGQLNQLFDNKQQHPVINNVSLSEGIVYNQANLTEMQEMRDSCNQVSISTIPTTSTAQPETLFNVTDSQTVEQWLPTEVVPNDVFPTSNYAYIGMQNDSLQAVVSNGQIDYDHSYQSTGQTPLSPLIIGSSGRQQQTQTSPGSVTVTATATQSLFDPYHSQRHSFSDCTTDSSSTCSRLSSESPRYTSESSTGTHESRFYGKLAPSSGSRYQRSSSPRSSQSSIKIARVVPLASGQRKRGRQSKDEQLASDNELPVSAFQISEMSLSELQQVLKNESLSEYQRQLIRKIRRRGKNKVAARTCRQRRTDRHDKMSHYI
# Cytochrome P450 2C19 = Cytochrome P450 2C19 (Homo sapiens, UniProt P33261); test: Cytochrome panel assay with activity outcomes. Panel member name: p450-cyp2c19 Compounds with AC50 equal or less than 10 uM are considered active; assay type: functional; details: read-out: AC50
# Sequence of Cytochrome P450 2C19 (P33261 whole entry): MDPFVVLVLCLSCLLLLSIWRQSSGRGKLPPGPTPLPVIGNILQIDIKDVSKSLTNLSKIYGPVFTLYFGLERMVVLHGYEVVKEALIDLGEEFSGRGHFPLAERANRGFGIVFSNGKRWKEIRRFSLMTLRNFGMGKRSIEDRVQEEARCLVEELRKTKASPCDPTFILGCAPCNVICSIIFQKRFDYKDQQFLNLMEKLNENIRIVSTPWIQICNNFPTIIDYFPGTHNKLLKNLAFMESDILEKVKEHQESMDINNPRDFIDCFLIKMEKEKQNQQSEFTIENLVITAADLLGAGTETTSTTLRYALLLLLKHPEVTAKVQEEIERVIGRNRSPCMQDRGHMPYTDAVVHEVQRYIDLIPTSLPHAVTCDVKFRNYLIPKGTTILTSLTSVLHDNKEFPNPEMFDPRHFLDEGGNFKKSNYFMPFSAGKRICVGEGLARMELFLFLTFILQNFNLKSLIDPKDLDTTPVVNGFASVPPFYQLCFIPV
# [2] = Luminescence Cell-Based Dose Confirmation HTS to Identify Activators of 5'UTR Stem-Loop Driven Alpha-Synuclein mRNA Translation in H4 Neuroglioblastoma Cells. [Related pubchem assays: 1829 (Project Summary), 1814 (Primary HTS)]; assay type: functional
# Coagulation factor XII = target: T3, Coagulation factor XII (Homo sapiens, UniProt P00748); assay type: functional;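 note: activated factor XIIa alpha cleaving a fluorogenic AMC peptide substrate; inhibitor potency from loss of enzyme activity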
# T3 sequence (P00748 whole entry): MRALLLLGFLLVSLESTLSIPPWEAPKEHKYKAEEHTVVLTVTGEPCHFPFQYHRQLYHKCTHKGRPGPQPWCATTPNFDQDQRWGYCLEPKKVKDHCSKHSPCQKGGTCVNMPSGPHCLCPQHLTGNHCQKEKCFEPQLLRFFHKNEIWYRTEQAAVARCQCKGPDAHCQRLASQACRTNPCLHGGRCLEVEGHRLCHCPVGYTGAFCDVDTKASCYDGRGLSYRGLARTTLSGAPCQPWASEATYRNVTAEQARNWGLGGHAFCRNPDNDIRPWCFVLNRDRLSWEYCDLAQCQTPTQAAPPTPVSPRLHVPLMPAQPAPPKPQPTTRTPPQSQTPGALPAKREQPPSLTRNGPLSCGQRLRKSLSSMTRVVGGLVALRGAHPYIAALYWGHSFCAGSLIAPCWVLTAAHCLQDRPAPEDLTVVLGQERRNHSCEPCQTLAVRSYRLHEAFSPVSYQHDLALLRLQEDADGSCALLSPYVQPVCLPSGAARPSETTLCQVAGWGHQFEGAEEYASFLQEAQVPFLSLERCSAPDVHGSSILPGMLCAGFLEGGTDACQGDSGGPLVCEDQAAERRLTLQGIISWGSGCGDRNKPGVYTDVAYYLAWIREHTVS
# H4 = test: Luminescence Cell-Based Dose Response HTS to Identify Activators of 5'UTR Stem-Loop Driven Prion Protein mRNA Translation in H4 Neuroglioblastoma Cells. [Related pubchem assays: 1829 (Project Summary), 1814 (Primary HTS)]; assay type: functional; details: Homo sapiens
# [3] = Luminescence Cell-Based Dose Response HTS to Identify Activators of Luciferase Translation or Activity in H4 […] Cells. [Related pubchem assays: 1829 (Project Summary), 1814 (Primary HTS)]; assay type: functional
# [4] = viability of uninfected HEp-2 cells – cell-based, HTS, cytotoxicity control for RSV inhibitor project, dose response (AID 2410); assay type: functional; details: human respiratory syncytial virus
# [5] = Luminescence Cell-Based Dose Response HTS to Identify Inhibitors of 5'UTR Stem-Loop Driven Prion Protein mRNA Translation in H4 Neuroglioblastoma Cells. [Related pubchem assays: 1827 (Project Summary), 1813 (Primary HTS)]; assay type: functional
# H9c2 = test: cells; assay type: functional, cell-based; details: Rattus norvegicus, H9c2, Myocardium;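 note: confirmatory concentration-response retest of ultra-high-throughput screening hits for modulation of myocardial damage; cell death induced by hydrogen peroxide oxidative stress; compound pretreatment for 60 min then peroxide exposure for 2 h; potency is for protecting the cells against peroxide damage rather than for killing them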
# [6] = alpha-synuclein stem-loop luciferase translation blockers – H4 neuroglioma cells, luminescence, confirmation (AID 1988); assay type: functional, cell-based
# Nonstructural protein 1 = Nonstructural protein 1 (Influenza A virus, UniProt Q194T2); assay type: functional, Influenza A virus (A/California/07/2009(H1N1))
# Sequence of Nonstructural protein 1 (Q194T2 whole entry): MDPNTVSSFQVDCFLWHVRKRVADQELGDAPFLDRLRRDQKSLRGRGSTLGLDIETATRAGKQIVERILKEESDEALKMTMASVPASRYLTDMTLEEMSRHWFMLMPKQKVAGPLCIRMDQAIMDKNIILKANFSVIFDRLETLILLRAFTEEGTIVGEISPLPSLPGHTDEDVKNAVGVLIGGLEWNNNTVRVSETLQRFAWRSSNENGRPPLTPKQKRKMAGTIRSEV
# [7] = luciferase reporter signal suppression in cells – H4 neuroglioma cells, luminescence, dose response (AID 1990); assay type: functional, cell-based
# [8] = target: Heat shock protein HSP 90-alpha (Homo sapiens, UniProt P07900); assay type: functional, organism-based
# [9] = loss of viability in HepG2 cells – cell-based, CellTiter-Glo, cherry-picked, cytotoxicity control for Shn3 inhibitor project, dose response (AID 624134); assay type: functional
# [10] = non-specific 3'UTR reporter inhibition in Clone20-Shn3RL – cell-based, Renilla luciferase, cherry-picked, counter-screen for Shn3 inhibitor project, dose response (AID 624133); assay type: functional
# [11] = reduction of Shn3 3'UTR-driven luciferase in osteoblasts – cell-based, Clone20 osteoblasts, firefly luciferase, cherry-picked, dose response (AID 624132); assay type: functional;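 note: firefly luciferase luminescence from reporter carrying the Shn3 3'UTR in osteoblasts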
structure (smiles),measurement,setting,value
CC(C)Oc1cccc(C(=O)NC(=S)Nc2cccnc2)c1,IC50,[1],> 40 µM (not active)
same,EC50,Beta-galactosidase,> 40 µM (inactive)
CCOc1ccc2nc(NC(=O)c3ccc(S(=O)(=O)N4CCOCC4)cc3)sc2c1,IC50,Protein skinhead-1,> 100 µM (inactive)
same,AC50,Cytochrome P450 2C19,2.82 µM (inconclusive)
Cn1ncc(Oc2ccc([N+](=O)[O-])cc2)c(Cl)c1=O,EC50,[2],> 120 µM (not active)
same,IC50,Coagulation factor XII,> 50 µM (inactive)
same,EC50,H4,> 120 µM (not active)
same,EC50,[3],25.9 µM (active)
COc1ccc(N2CCN(S(=O)(=O)c3ccc(C(=O)NC4CCCC4)cc3)CC2)cc1,IC50,Coagulation factor XII,> 50 µM (inactive)
O=C(NC(=S)Nc1ccc(S(=O)(=O)Nc2nccs2)cc1)c1ccccc1F,IC50,Coagulation factor XII,> 50 µM (inactive)
O=C(Nc1ccc(SC(F)F)cc1)c1ccccc1F,IC50,Protein skinhead-1,23.1 µM (active)
same,CC50,[4],> 50 µM (active)
O=C(CN1C(=O)C2C3C=CC(C3)C2C1=O)Nc1nc(-c2ccccn2)cs1 (stereo not given),EC50,[5],> 120 µM (not active)
same,IC50,H9c2,15.1 µM (active)
same,EC50,[6],12.2 µM (active)
same,IC50,Nonstructural protein 1,10.5 µM (active)
same,EC50,[7],15.4 µM (active)
O=C(COC(=O)c1ccc(Br)o1)c1ccc(S(=O)(=O)N2CCCCC2)cc1,IC50,[1],23.2 µM (not active)
same,EC50,Beta-galactosidase,> 40 µM (inactive)
Cc1cccc2cc(CN(Cc3nnnn3C3CCCCC3)C3CCCC3)c3nnnn3c12,AC50,[8],2.18 µM (active)
COc1ccc(-n2nnnc2-c2cnc(N3CCCC3)nc2C(F)(F)F)cc1,AC50,[9],50.8 µM (active)
same,AC50,[10],4.77 µM (active)
same,AC50,[11],4.75 µM (active)
CCCc1nc2[nH]nc(N)c2c2c1CCC2,IC50,Coagulation factor XII,> 50 µM (inactive)
c1ccc(-c2nc(-c3ccncc3)no2)cc1,IC50,Protein skinhead-1,16.3 µM (active)
